In publication PMC8715118, “Assessing potentiation of the (α4)3(β2)2 nicotinic acetylcholine receptor by the allosteric agonist CMPI” (The Journal of Biological Chemistry, 2021):
“And” between values parts separate entries of the source, which are not always exact repeats. Equal values may be shown once. Read-outs that look alike come from different tables or passages of the source.

Key:
(α4H116V)3(β2)2 nAChR = biological target: T1, (α4H116V)3(β2)2 nAChR (Homo sapiens, UniProt P17787+P43681, H142V); test: Two-electrode voltage-clamp, oocytes expressing (α4H116V)3(β2)2 nAChR; assay type: cell-based
T1 construct: expressed in transfected cells; host or cells: Xenopus laevis oocytes injected with cRNA, 8:1 α4:β2
T1 sequence (P43681 27-627 H142V): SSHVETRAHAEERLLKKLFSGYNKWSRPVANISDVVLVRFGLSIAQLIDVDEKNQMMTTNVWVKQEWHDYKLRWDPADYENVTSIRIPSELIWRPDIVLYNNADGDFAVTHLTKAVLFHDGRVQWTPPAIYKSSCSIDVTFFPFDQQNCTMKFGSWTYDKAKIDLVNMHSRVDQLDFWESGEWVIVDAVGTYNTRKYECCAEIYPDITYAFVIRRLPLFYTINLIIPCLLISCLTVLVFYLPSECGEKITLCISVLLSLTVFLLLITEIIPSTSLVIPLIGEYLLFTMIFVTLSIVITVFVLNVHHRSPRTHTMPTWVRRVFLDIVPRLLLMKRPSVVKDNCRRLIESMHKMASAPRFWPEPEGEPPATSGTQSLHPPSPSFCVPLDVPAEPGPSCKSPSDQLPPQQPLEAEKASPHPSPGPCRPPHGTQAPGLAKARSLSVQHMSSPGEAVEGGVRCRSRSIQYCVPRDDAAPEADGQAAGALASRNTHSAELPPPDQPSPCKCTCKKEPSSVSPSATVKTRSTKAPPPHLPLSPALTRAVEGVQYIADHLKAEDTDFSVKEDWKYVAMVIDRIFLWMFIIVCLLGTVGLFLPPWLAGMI
T1 sequence (P17787 26-502): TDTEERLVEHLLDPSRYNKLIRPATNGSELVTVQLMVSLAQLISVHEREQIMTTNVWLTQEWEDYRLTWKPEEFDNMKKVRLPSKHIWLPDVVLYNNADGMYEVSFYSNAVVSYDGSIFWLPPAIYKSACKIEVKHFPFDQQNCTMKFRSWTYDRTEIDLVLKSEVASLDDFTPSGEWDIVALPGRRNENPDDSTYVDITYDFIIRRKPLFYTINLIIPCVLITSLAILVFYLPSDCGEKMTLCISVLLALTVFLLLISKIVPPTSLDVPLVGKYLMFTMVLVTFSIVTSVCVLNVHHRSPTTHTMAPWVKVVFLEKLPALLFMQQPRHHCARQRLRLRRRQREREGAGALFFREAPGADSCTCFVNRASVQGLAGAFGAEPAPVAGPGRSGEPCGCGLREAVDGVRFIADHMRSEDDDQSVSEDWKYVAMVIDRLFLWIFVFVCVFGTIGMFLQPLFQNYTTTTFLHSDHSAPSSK
Procedure: (§1) Oocytes-positive female Xenopus laevis were purchased from NASCO, and all procedures were performed according to an animal use protocol approved by the Institutional Animals Care and Use Committee of The University of Texas Health Science Center at Tyler. Ovarian lobules were surgically harvested, treated with collagenase type 2, and Stage V and VI oocytes were visually selected and maintained at 18 °C in modified ND96-gentamicin buffer (96 mM NaCl, 2 mM KCl, 1.8 mM CaCl2, 1 mM MgCl2, 5 mM Hepes, and 50 μg/ml gentamicin, pH 7.6).
(§2) pSP64 Poly(A) plasmids with cDNA encoding for human α4 or β2 nAChR subunit were used to prepare cRNA transcripts suitable for oocyte expression. The plasmids were linearized with AseI (hα4) and PvuII (hβ2), then cRNA transcripts were prepared in vitro using mMESSAGE mMACHINE high yield-capped RNA transcription kits (Ambion, Thermo Fisher Scientific), purified on NucAway Spin column (Invitrogen, Thermo Fisher Scientific), and stored at −80 °C until used. Point mutations within the plasmid encoding the α4 nAChR subunit were introduced using QuikChange II Site-Directed Mutagenesis Kit (Agilent Technologies), as described previously ([28]). To generate amino acid substitutions (K64T, E66I, H116V, H116L, and H116A), two custom-designed complementary oligos containing the desired mutation were used (Integrated DNA Technologies). The forward primers were as the following with the codon for mutated amino acids are underlined and nucleotide(s) changes are bolded and italicized:
(§3) The oocytes were injected with 10 to 50 ng of a cRNA mix containing α4 (WT or mutant) and β2 RNAs at ratios of 8:1(α4:β) or 1:8 (α4:β2) to bias expression toward (α4)3(β2)2 or (α4)2(β2)3 nAChRs, respectively. The injection of oocytes with RNAs mixture containing four folds or higher α4 RNA than β2 RNA have been established to express receptor population that is made up of three α4 and two β2 subunits ([9], [12], [28], [43], [44], [45]).
24 to 72 h after cRNA injection, Xenopus oocytes were placed in a custom-made recording chamber that is connected to an eight-channel automated perfusion system (Warner Instruments) and perfused with recording buffer (100 mM NaCl, 2 mM KCl, 1 mM CaCl2, 0.8 mM MgCl2, 1 mM EGTA, and 10 mM Hepes, pH 7.5). Unless otherwise specified in figure legends, each recording run included several drug applications (10 s of an agonist with or without CMPI or NS9283) separated by 3 to 4 min buffer wash intervals. Between recording runs, the oocytes were washed with recording buffer for at last 5 min. […] The currents were digitized using Digidata 1550A (Axon Instruments, Molecular Devices), and the peak currents were quantified using pCLAMP 10 (Axon Instruments), then normalized and analyzed using Excel 2010 (Microsoft) and SigmaPlot 11.0 (Systat Software). […]

(α4)3(β2)2 nAChR [1] = biological target: T2, (α4)3(β2)2 nAChR (Homo sapiens, UniProt P17787+P43681); test: Two-electrode voltage-clamp whole-cell currents, Xenopus oocytes expressing WT (α4)3(β2)2 nAChR; assay type: cell-based
T2 construct: expressed in transfected cells; host or cells: Xenopus laevis oocytes injected with cRNA, 8:1 α4:β2
T2 sequence (P43681 27-627): as the sequence (P43681 27-627 H142V) above, with V116H counted along it
T2 sequence (P17787 26-502): as the sequence (P17787 26-502) above
Procedure: as §1, §2, §3
24 to 72 h after cRNA injection, Xenopus oocytes were placed in a custom-made recording chamber that is connected to an eight-channel automated perfusion system (Warner Instruments) and perfused with recording buffer (100 mM NaCl, 2 mM KCl, 1 mM CaCl2, 0.8 mM MgCl2, 1 mM EGTA, and 10 mM Hepes, pH 7.5). Unless otherwise specified in figure legends, each recording run included several drug applications (10 s of an agonist with or without CMPI or NS9283) separated by 3 to 4 min buffer wash intervals. Between recording runs, the oocytes were washed with recording buffer for at last 5 min. The oocytes were voltage-clamped at −50 mV using Oocyte Clamp OC-725B (Warner Instruments). The currents were digitized using Digidata 1550A (Axon Instruments, Molecular Devices), and the peak currents were quantified using pCLAMP 10 (Axon Instruments), then normalized and analyzed using Excel 2010 (Microsoft) and SigmaPlot 11.0 (Systat Software). For NS9283 and CMPI potentiation of agonist-induced responses, the peak currents were normalized to current elicited by agonist alone applied within the same recording run. For the effect of coapplication of 1 μM NS9283 or CMPI on agonist concentration-response curve, the peak currents were normalized to current elicited by saturating concentration of agonist applied within the same recording run. […] I0 = 100 for NS9283 and CMPI potentiation of agonist-induced responses and I0 = 0 for agonist concentration-response experiments. The best-fit values for Imax and EC50 ± SD are presented.

(α4)3(β2)2 nAChR [2] = biological target: T2, (α4)3(β2)2 nAChR; conditions: cited from earlier work
(α4)3(β2)2 nAChR [3] = biological target: T2, (α4)3(β2)2 nAChR; test: Mechanistic (Monod-Wyman-Changeux two-state model) analysis of current responses, WT (α4)3(β2)2 nAChR; assay type: cell-based
Excerpt: To gain mechanistic insight into receptor activation in the presence of CMPI, we analyzed the currents in the framework of a cyclic two-state (resting and active) allosteric activation model ([31], [32], [33]). In this model, channel opening is mediated by stabilization of the active state by an agonist that, by definition, has higher affinity to the active than resting state.
We commenced by converting the raw amplitudes of current responses to units of probability of being in the active state (PA units).
Further analysis of electrophysiological data was conducted in the framework of the two-state concerted transition model, adapted from the MWC cyclic model originally used to describe enzyme function ([31], [32], [33]). The raw peak amplitudes of current responses were converted to units of probability of being in the active state (PA).
The numbers of α4:β2 and α4:α4 binding sites (Nα4:β2 and Nα4:α4) were constrained to 2 and 1, respectively.
The concentration-response curve for TC-2559 was fitted to the following equation:(3) PA=1/1+L[1+[TC-2559]/KR,TC-2559,α4:β2/1+[TC-2559]/(KR,TC-2559,α4:β2cTC-2559,α4:β2)]^Nα4:β2
The concentration-response data were analyzed using Equation 3, with the value of L modified to reflect receptor activation by TC-2559, and the affinity and efficacy terms in the equation reflecting the values for CMPI. The number of binding sites for CMPI in Equation 3 was constrained to 1.
Curve fitting was done using Origin 2020 (OriginLab Corp). The results are reported as best-fit parameter ±SD of the fit. All data are included in the analysis.

Cc1c(-c2cc(-c3ccccc3Cl)no2)cnn1C1CCNCC1 [CMPI, 3-(2-chlorophenyl)-5-(5-methyl-1-(piperidin-4-yl)-1H-pyrrazol-4-yl)isoxazole]
potentiation fold (Ave ± SD), agonist + 1 μM modulator / agonist alone ((α4H116V)3(β2)2 nAChR; ACh (1 mM)): 0.76 ± 0.05 | potentiation fold (Ave ± SD), agonist + 1 μM modulator / agonist alone ((α4H116V)3(β2)2 nAChR; TC 2559 (30 μM)): 3.01 ± 0.39 | maximal potentiation ((α4)3(β2)2 nAChR [1]; 1 μM TC-2559): 880 ± 13% | maximal potentiation equivalent, % of current elicited by 1 mM ACh ((α4)3(β2)2 nAChR [1]; 1 μM TC-2559 + CMPI): 44.6% | maximal potentiation, % of control ((α4)3(β2)2 nAChR [1]; 1 μM cytisine): 716 ± 59% | effect on responses to agonists at subsaturating concentrations ((α4)3(β2)2 nAChR [1]; 1 μM modulator, ACh, nicotine, cytisine, TC-2559, p < 0.001): potentiated | effect on responses to saturating concentrations of the tested agonists ((α4)3(β2)2 nAChR [1]; 1 μM modulator, except for TC-2559): did not potentiate | maximal potentiation, % of control ((α4)3(β2)2 nAChR [1]; 1 μM nicotine): 618 ± 34% | maximal potentiation ((α4)3(β2)2 nAChR [1]; 10 μM TC-2559): 634 ± 94% | maximal potentiation equivalent, % of current elicited by 1 mM ACh ((α4)3(β2)2 nAChR [1]; 10 μM TC-2559 + CMPI): 48.4% | potentiation fold (Ave ± SD), agonist + 1 μM modulator / agonist alone ((α4)3(β2)2 nAChR [1]; ACh (1 mM), 1 μM modulator): 0.81 ± 0.15 | potentiation fold (Ave ± SD), agonist + 1 μM modulator / agonist alone ((α4)3(β2)2 nAChR [1]; TC 2559 (30 μM), 1 μM modulator): 6.41 ± 2.15 | EC50 ((α4)3(β2)2 nAChR [1]; receptors activated by 1 μM cytisine, read-out: EC50 for potentiation): 0.34 ± 0.08 µM | EC50 ((α4)3(β2)2 nAChR [1]; receptors activated by 1 μM nicotine, read-out: EC50 for potentiation): 0.27 ± 0.04 µM | EC50 ((α4)3(β2)2 nAChR [1]; responses induced by 1 μM TC-2559, read-out: potentiation EC50): 0.11 ± 0.01 µM | EC50 ((α4)3(β2)2 nAChR [1]; responses induced by 10 μM TC-2559, read-out: potentiation EC50): 0.09 ± 0.04 µM | left-shift of the ACh concentration-response curve ((α4)3(β2)2 nAChR [2]; CMPI at 1 μM): ~100 fold | direct activation of the α4β2 receptor ((α4)3(β2)2 nAChR [2]): very weak direct activator | current responses to EC10 (10 μM) ACh with coapplied CMPI, % of control ((α4)3(β2)2 nAChR [2]; maximal potentiation, 10 μM ACh): 386 ± 15% | EC50 ((α4)3(β2)2 nAChR [2]; potentiation of 10 μM ACh response): 0.18 ± 0.03 µM | free energy change toward stabilization of the active state ((α4)3(β2)2 nAChR [3]; CMPI at the α4:α4 interface, from 1 μM TC-2559 background dataset): -5.94 kJ/mol | ΔGgating ((α4)3(β2)2 nAChR [3]; CMPI at the α4:α4 site, from mean parameters): -5.65 kJ/mol | cCMPI,α4:α4 ((α4)3(β2)2 nAChR [3]; background of 1 μM TC-2559): 0.090 ± 0.004 | Kd ((α4)3(β2)2 nAChR [3]; background of 1 μM TC-2559, 0.01 to 3 μM CMPI, read-out: KR,CMPI,α4:α4): 0.17 ± 0.03 µM | cCMPI,α4:α4 ((α4)3(β2)2 nAChR [3]; background of 1 μM cytisine): 0.074 ± 0.009 | Kd ((α4)3(β2)2 nAChR [3]; background of 1 μM cytisine, read-out: KR,CMPI,α4:α4): 0.43 ± 0.17 µM | cCMPI,α4:α4 ((α4)3(β2)2 nAChR [3]; background of 1 μM nicotine): 0.065 ± 0.007 | Kd ((α4)3(β2)2 nAChR [3]; background of 1 μM nicotine, read-out: KR,CMPI,α4:α4): 0.4 ± 0.1 µM | cCMPI,α4:α4 ((α4)3(β2)2 nAChR [3]; background of 10 μM ACh): 0.145 ± 0.008 | Kd ((α4)3(β2)2 nAChR [3]; background of 10 μM ACh, read-out: KR,CMPI,α4:α4): 0.29 ± 0.06 µM | cCMPI,α4:α4 ((α4)3(β2)2 nAChR [3]; background of 10 μM TC-2559): 0.129 ± 0.009 | Kd ((α4)3(β2)2 nAChR [3]; background of 10 μM TC-2559, read-out: KR,CMPI,α4:α4): 0.09 ± 0.02 µM | Kd ((α4)3(β2)2 nAChR [3]; five approaches, read-out: KR,CMPI,α4:α4, range of estimates): 0.09 to 0.43 µM | mean cCMPI,α4:α4 ((α4)3(β2)2 nAChR [3]; mean of the five approaches): 0.101 ± 0.035 and 0.101 | Kd ((α4)3(β2)2 nAChR [3]; mean of the five approaches, read-out: mean KR,CMPI,α4:α4): 0.28 ± 0.15 µM
